# Test results as given in patent publication US20220110320A1, “ANTIMICROBIAL THIOURONIUM COPOLYMERS AND METHODS OF MAKING AND USING THE SAME” (priority 2020, published 2022).
# Assay: 1H-NMR stability (hydrolysis) of VBT monomer
# Type: physicochemical
# Details: 3 weeks
# Description: ^1H-NMR Studies. The VBT monomer (5 mg/mL) stability in D2O (with 0.5 μL DMSO as standard) and 0.5 M sodium acetate was analyzed using ^1H-NMR (Avance-600 MHz, Bruker). The VBT peak position and integration were monitored vs. time.
# The monomer was recrystallized before use to remove any deprotected thiols. The PVBT polymer was prepared using radical polymerization in TFE and was characterized using NMR spectroscopy. Because the thiouronium group is usually employed as a precursor to thiols, via base-induced hydrolysis, the stability of the VBT monomer under neutral and mildly basic conditions was assessed by recording ^1H-NMR spectra of VBT in D20 and in 0.5 M NaAc (pH≈9.2) for 3 weeks. […] In fact, hydrolysis is typically carried out at much higher pH.
structure (smiles),measurement,setting,value
C=Cc1ccc(CSC(=N)N)cc1.Cl [VBT],Hydrolysis of monomer by 1H-NMR,in 0.5 M NaAc (pH≈9.2),no signs of hydrolysis
same,Hydrolysis of monomer by 1H-NMR,in D2O,no signs of hydrolysis
